Data as given in patent US5985897A, “Benzothiphene compounds, intermediates, compositions, and methods” (priority 1997, dated 1999).
Each block holds one compound with its values, some of them ahead of it.

What was measured:
Serum cholesterol = Serum cholesterol analysis in ovariectomized rats (4-day oral dosing); type: in vivo, rat (female Sprague Dawley; settings: for Serum Cholest. % Dec. (decrease versus ovariectomized controls): daily for 4 days, * p < .05
Description: (§1) In the examples illustrating the methods, a postmenopausal model was used in which effects of different treatments upon circulating lipids were determined.
(§2) Seventy-five day old female Sprague Dawley rats (weight range of 200 to 225 g) were obtained from Charles River Laboratories (Portage, Mich.). The animals were either bilaterally ovariectomized (OVX) or exposed to a sham surgical procedure at Charles River Laboratories, and then shipped after one week. Upon arrival, they were housed in metal hanging cages in groups of 3 or 4 per cage and had ad libitum access to food (calcium content approximately 0.5%) and water for one week. Room temperature was maintained at 22.2°±1.70° C. with a minimum relative humidity of 40%. The photoperiod in the room was 12 hours light and 12 hours dark.
(§3) Dosing Regimen Tissue Collection. After a one week acclimation period (therefore, two weeks post-OVX) daily dosing with test compound was initiated. 17α-ethynyl estradiol or the test compound were given orally, unless otherwise stated, as a suspension in 1% carboxymethylcellulose or dissolved in 20% cyclodextrin. Animals were dosed daily for 4 days. Following the dosing regimen, animals were weighed and anesthetized with a ketamine:xylazine (2:1, V:V) mixture and a blood sample was collected by cardiac puncture. The animals were then sacrificed by asphyxiation with CO2, the uterus was removed through a midline incision, and a wet uterine weight was determined.
Cholesterol Analysis. Blood samples were allowed to clot at room temperature for 2 hours, and serum was obtained following centrifugation for 10 minutes at 3000 rpm. Serum cholesterol was determined using a Boehringer Mannheim Diagnostics high performance cholesterol assay. Briefly the cholesterol was oxidized to cholest-4-en-3-one and hydrogen peroxide. The hydrogen peroxide was then reacted with phenol and 4-aminophenazone in the presence of peroxidase to produce a p-quinone imine dye, which was read spectrophotemetrically at 500 nm. Cholesterol concentration was then calculated against a standard curve.
Data presented in Table 1 below show comparative results among ovariectomized rats, rats treated with 17α-ethynyl estradiol (EE2; an orally available form of estrogen), and rats treated with certain compounds of the instant invention. […] This uterine response to estrogen is well recognized in the art.
The data presented in Table 1 below reflects the response of 5 to 6 rats per treatment.

uterus = tested on: uterus; design: species or system rat (female Sprague Dawley, ovariectomized); settings: rat, in vivo, po, 0.1 mg/kg/day
Description: as §1, §2
as §3, with “Following the dosing regimen, animals were weighed and anesthetized with a ketamine:xylazine (2:1, V:V) mixture and a blood sample was collected by cardiac puncture.” left out, “determined. […]” for “determined.”

Eosinophil peroxidase = tested on: Eosinophil peroxidase; design: species or system rat (female Sprague Dawley, ovariectomized); settings: rat, in vivo
Description: as §2
Dosing Regimen Tissue Collection. […] The animals were then sacrificed by asphyxiation with CO2, the uterus was removed through a midline incision, and a wet uterine weight was determined.
Uterine Eosinophil Peroxidase (EPO) Assay. […] Upon addition of 0.01% hydrogen peroxide and 10 mM O-phenylenediamine (final concentrations) in Tris buffer, increase in absorbance was monitored for one minute at 450 nm. […] The maximal velocity of a 15 second interval was determined over the initial, linear portion of the reaction curve.
As is expressed in the data below, estrogenicity also was assessed by evaluating the adverse response of eosinophil infiltration into the uterus. […]

femur density = test: Osteoporosis Test Procedure (femur density, ovariectomized rats); type: in vivo, rat; settings: orally administered
Description: Following the General Preparation Procedure, infra, the rats are treated daily for 35 days (6 rats per treatment group) and sacrificed by carbon dioxide asphyxiation on the 36th day. The 35 day time period is sufficient to allow maximal reduction in bone density, measured as described herein. At the time of sacrifice, the uteri are removed, dissected free of extraneous tissue, and the fluid contents are expelled before determination of wet weight in order to confirm estrogen deficiency associated with complete ovariectomy. […] The uteri are then placed in 10% neutral buffered formalin to allow for subsequent histological analysis. The right femurs are excised and digitilized x-rays generated and analyzed by an image analysis program (NIH image) at the distal metaphysis. The proximal aspect of the tibiae from these animals are also scanned by quantitative computed tomography. In accordance with the above procedures, compounds of the instant invention and ethynyl estradiol (EE2) in 20% hydroxypropyl β-cyclodextrin are orally administered to test animals. Distal femur metaphysis and proximal tibiae data are compared to intact and ovariectomized test animals. Results are reported as percent protection relative to ovariectomy. Ovariectomy of the test animals causes a significant reduction in femur density compared to intact, vehicle treated controls. […]

[1] = 0.1 mg/kg PO, negative = increase

Uterine Eosinophil (Vmax), eosinophil peroxidase (Eosinophil peroxidase): 212.4
SMILES: C#C[C@]1(O)CC[C@H]2[C@@H]3CCc4cc(O)ccc4[C@H]3CC[C@@]21C [EE2, 17α-ethynyl estradiol, reference compound]
Serum Cholest. % Dec. (decrease versus ovariectomized controls) (Serum cholesterol; [1]): 76.6% | serum cholesterol (in words) (Serum cholesterol; oral, versus ovariectomized control animals, EE2 at 0.1 mg/kg/day): caused a decrease in serum cholesterol | uterine weight (in words) (uterus): substantially greater than the uterine weight of ovariectomized test animals | eosinophil infiltration into the uterus (in words) (Eosinophil peroxidase): substantial, expected increase in eosinophil infiltration | loss of femur density after ovariectomy (in words) (femur density): prevents this loss

SMILES: CC(C)c1sc2ccccc2c1Oc1ccc(OCCN2CCCCC2)cc1.Cl [Example 4, 3-[4-[2-(1-Piperidinyl)ethoxy]phenoxy]-2-(2-propyl]benzo[b]thiophene Hydrochloride]
Serum Cholest. % Dec. (decrease versus ovariectomized controls) (Serum cholesterol; [1]): -27.6% | Serum Cholest. % Dec. (decrease versus ovariectomized controls) (Serum cholesterol; 1.0 mg/kg PO): 19.2% | Serum Cholest. % Dec. (decrease versus ovariectomized controls) (Serum cholesterol; 10.0 mg/kg PO): 61.6%

SMILES: CCCc1sc2ccccc2c1Oc1ccc(OCCN2CCCCC2)cc1.Cl [Example 7, 3-[4-[2-(1-Piperidinyl)ethoxy]phenoxy]-2-propylbenzo[b]thiophene Hydrochloride]
Serum Cholest. % Dec. (decrease versus ovariectomized controls) (Serum cholesterol; [1]): -11.1% | Serum Cholest. % Dec. (decrease versus ovariectomized controls) (Serum cholesterol; 1.0 mg/kg PO): 41.2% | Serum Cholest. % Dec. (decrease versus ovariectomized controls) (Serum cholesterol; 10.0 mg/kg PO): 46.6%

SMILES: Cl.c1ccc2c(Oc3ccc(OCCN4CCCCC4)cc3)c(C3CCCCC3)sc2c1 [Example 11, 3-[4-[2-(1-Piperidinyl)ethoxy]phenoxy]-2-cyclohexylbenzo[b]thiophene Hydrochloride]
Serum Cholest. % Dec. (decrease versus ovariectomized controls) (Serum cholesterol; [1]): 55.8% | Serum Cholest. % Dec. (decrease versus ovariectomized controls) (Serum cholesterol; 1.0 mg/kg PO): 58.9% | Serum Cholest. % Dec. (decrease versus ovariectomized controls) (Serum cholesterol; 10.0 mg/kg PO): 50.2%
